These are literature values, as cited in US20110091549A1, “Modulating Drug Release Rate By Controlling The Kinetics Of The pH Transition In Hydrogels” (Confluent Surgical, Inc., priority 2009, published 2011).

Like-named read-outs stand apart in the source and are kept apart here.

The conditions of data set [1]: free base form compared with the salt form.
Setting [2] is: drugs having a pKa of from about 7.4 to about 8.5.

Take `COc1cccc2c1C(=O)c1c(O)c3c(c(O)c1C2=O)C[C@@](O)(C(=O)CO)C[C@@H]3O[C@H]1C[C@H](N)[C@H](O)[C@H](C)O1` [Doxorubicin]: the pKa (in general, the negative logarithm of the acid dissociation constant) is listed as 8.2. On to `CCCN(CC)C(CC)C(=O)Nc1c(C)cccc1C` (stereo not drawn) [Etidocaine], for which, under setting [2], the pKa was 7.7.

For `CCCCN1CCCCC1C(=O)Nc1c(C)cccc1C` (stereo not drawn) [Bupivacaine, bupivacaine], the aqueous solubility entry in data set [1] is “lower aqueous solubility”. For the same molecule, under “transition of the salt form into free base form”, the pKa result was “about 8.1”.

`O=c1[nH]c(=O)n([C@H]2C[C@H](O)[C@@H](CO)O2)cc1Br` [Broxuridine]: under setting [2], the pKa is recorded as 7.85. Regarding `CN1CCN(C(c2ccccc2)c2ccc(Cl)cc2)CC1` (stereo not drawn) [Chlorcyclizine], the pKa under setting [2] is listed as 7.8.
